In ChEMBL document CHEMBL1687844, “In Vitro antiretroviral properties of S/GSK1349572, a next-generation HIV integrase inhibitor” (Antimicrob Agents Chemother, 2011):
pEC50: −log10 of the molar value. Activity calls are given as the source filed them. The calls are words filed in the database; no cut-off is given here.

What was measured:
[1] = tested on: Human immunodeficiency virus 1; assay: Antiviral activity against Human immunodeficiency virus 1 Bal infected in human PBMC assessed as incorporation of [methly-3H]dTTP to viral DNA after 7 days by reverse transcriptase activity in presence of 100% human serum; conditions: 168 h
[2] = tested on: Human immunodeficiency virus 1; assay: Antiviral activity against Human immunodeficiency virus 1 Bal infected in human PBMC assessed as incorporation of [methly-3H]dTTP to viral DNA after 7 days by reverse transcriptase activity in presence of 100% human serum relative to control
[3] = tested on: Human immunodeficiency virus 1; assay: Antiviral activity against Human immunodeficiency virus 1 NL432 infected in human MT4 cells assessed as effect on viral DNA production after 18 hrs by quantitative PCR; assay type: functional, organism-based
[4] = Cytotoxicity against human MT4 cells after 2 days by Cell titer Glo luminescent assay; assay type: cell-based
[5] = tested on: Human immunodeficiency virus 2; assay: Antiviral activity against Human immunodeficiency virus 2 clinical isolate obtained from HIV infected patients; assay type: functional, organism-based
[6] = tested on: Human immunodeficiency virus 1; assay: Antiviral activity against Human immunodeficiency virus 1 3B infected in human MT4 cells assessed as incorporation of [methly-3H]dTTP to viral DNA after 7 days by reverse transcriptase activity in presence of 20% human serum albumin relative to control; assay type: functional
[7] = Cytotoxicity against unstimulated human PBMC after 2 days by Cell titer Glo luminescent assay; assay type: cell-based
[8] = Cytotoxicity against human U937 cells after 2 days by Cell titer Glo luminescent assay; assay type: cell-based, U-937
[9] = Cytotoxicity against human MOLT4 cells after 2 days by Cell titer Glo luminescent assay; assay type: cell-based, MOLT-4
[10] = tested on: Human immunodeficiency virus 1; assay: Antiviral activity against pseudo Human immunodeficiency virus 1 Bal infected in human CIP4 after 2 days by luciferase reporter gene assay in presence of 40 mg/ml HAS relative to control; assay type: functional
[11] = Cytotoxicity against PHA-stimulated human PBMC after 2 days by Cell titer Glo luminescent assay; assay type: cell-based
[12] = tested on: Human immunodeficiency virus 1; assay: Antiviral activity against Human immunodeficiency virus 1 NL432 infected in human MT4 cells assessed as increase in 2-LTR circular DNA after 18 hrs by quantitative PCR; assay type: functional, organism-based
[13] = tested on: Human immunodeficiency virus 1; assay: Ratio of EC90 for protein-activated Human immunodeficiency virus 1 Bal infected in human PBMC to EC50 Human immunodeficiency virus 1 Bal infected in human PBMC; assay type: functional
[14] = tested on: Human immunodeficiency virus 1; assay: Antiviral activity against Human immunodeficiency virus 1 3B infected in human MT2 cells assessed as inhibition of virus induced cytopathic effect measured after 2 to 3 days by PCR; assay type: functional, organism-based
[15] = tested on: Human immunodeficiency virus 1; assay: Antiviral activity against pseudo Human immunodeficiency virus 1 Bal infected in human CIP4 after 2 days by luciferase reporter gene assay; assay type: functional, organism-based; conditions: CIP4, 48 h
[16] = tested on: Human immunodeficiency virus 1; assay: Antiviral activity against PI-resistant Human immunodeficiency virus 1 NL432 harboring […] L24I/M46I/L63P/A71V/G73S/V82Tmutant infected in human MT4 cells after 2 to 3 days by reverse transcriptase activity; assay type: functional, organism-based; conditions: Human immunodeficiency virus 1, NL432, MT4
[17] = tested on: Human immunodeficiency virus 1; assay: Antiviral activity against pseudo Human immunodeficiency virus 1 Bal infected in human CIP4 after 2 days by luciferase reporter gene assay in presence of 2 mg/ml AAG relative to control; assay type: functional
[18] = tested on: Human immunodeficiency virus 1; assay: Antiviral activity against NNRTI-resistant Human immunodeficiency virus 1 NL432 harboring non-nucleotide reverse transcriptase […] mutant infected in human HeLa-CD4 cells after 2 to 3 days by reverse transcriptase activity; assay type: functional, organism-based; conditions: Human immunodeficiency virus 1, NL432, CD4; pooled result: one value given for 9 cell lines, strains, targets or settings
[19] = tested on: Human immunodeficiency virus 1; assay: Antiviral activity against Human immunodeficiency virus 1 NL432 infected in human MT4 cells assessed as inhibition of viral DNA integration after 18 hrs by quantitative PCR; assay type: functional, organism-based
[20] = tested on: Human immunodeficiency virus 1; assay: Antiviral activity against Human immunodeficiency virus 1 Bal infected in human PBMC assessed as incorporation of [methly-3H]dTTP to viral DNA after 7 days by reverse transcriptase activity; assay type: functional, organism-based; conditions: 168 h
[21] = tested on: Human immunodeficiency virus 1; assay: Antiviral activity against Human immunodeficiency virus 1 3B infected in human MT4 cells assessed as viral viability after 4 to 5 days by Cell titer Glo luminescent assay; assay type: functional, organism-based
[22] = tested on: Human immunodeficiency virus 1; assay: Antiviral activity against Human immunodeficiency virus 1 3B infected in human MT4 cells assessed as incorporation of [methly-3H]dTTP to viral DNA after 7 days by reverse transcriptase activity in presence of […]; assay type: functional
[23] = Cytotoxicity against human IM9 cells after 2 days by Cell titer Glo luminescent assay; assay type: cell-based, IM-9
[24] = tested on: Human immunodeficiency virus 1; assay: Antiviral activity against Human immunodeficiency virus 1 3B harboring reverse transcriptase M184V, M184I, K82N mutant infected in human MT2 cells assessed as inhibition of virus induced cytopathic effect selected on day 14 after 4 passages by PCR analysis; assay type: functional, organism-based; conditions: MT2, 336 h
[25] = tested on: Human immunodeficiency virus 1; assay: Antiviral activity against Human immunodeficiency virus 1 3B harboring reverse transcriptase M184V, M184I mutant infected in human MT2 cells assessed as inhibition of virus induced cytopathic effect selected on day 14 after 4 passages by PCR analysis; assay type: functional, organism-based; conditions: MT2, 336 h
[26] = tested on: Human immunodeficiency virus 1; assay: Antiviral activity against Human immunodeficiency virus 1 3B harboring reverse transcriptase M184V mutant infected in human MT2 cells assessed as inhibition of virus induced cytopathic effect selected on day 14 after 4 passages by PCR analysis; assay type: functional, organism-based; conditions: MT2, 336 h
[27] = tested on: Human immunodeficiency virus 1; assay type: functional, organism-based; conditions: Human immunodeficiency virus 1, 3B, MT2
[28] = tested on: Human immunodeficiency virus 1; assay: Antiviral activity against Human immunodeficiency virus 1 3B harboring integrase T124A mutant gene infected in human MT2 cells assessed as inhibition of virus induced cytopathic effect selected after 14 passages measured after 2 to 3 days by PCR; assay type: functional, organism-based
[29] = tested on: Human immunodeficiency virus 1; assay type: functional, organism-based; conditions: Human immunodeficiency virus 1, 3B, MT2; remark: listed apart in the source
[30] = tested on: Human immunodeficiency virus 1; assay type: functional, organism-based; conditions: Human immunodeficiency virus 1, 3B, MT2; remark: listed apart in the source
[31] = tested on: Human immunodeficiency virus 1; assay type: functional, organism-based; conditions: Human immunodeficiency virus 1, 3B, MT2; remark: listed apart in the source
[32] = tested on: Human immunodeficiency virus 1; assay type: functional, organism-based; conditions: Human immunodeficiency virus 1, 3B, MT2, 672 h

Structure (SMILES): COc1cc2c(cc1Cc1cccc(Cl)c1F)c(=O)c(C(=O)O)cn2[C@H](CO)C(C)C
- pEC50 [1]: 7.70
- EC90 [1]: 78 nM
- fold change (FC) [2]: 22

Structure (SMILES): C[C@@H]1CCO[C@H]2Cn3cc(C(=O)NCc4ccc(F)cc4F)c(=O)c([O-])c3C(=O)N12.[Na+] [DOLUTEGRAVIR SODIUM]
- Activity [3]: inactive
- CC50 at 48 h [4]: 14000 nM
- pEC50 [5]: 9.10
- fold change (FC) [6]: 32
- CC50 at 48 h [7]: 189000 nM
- CC50 at 48 h [8]: 7000 nM
- CC50 at 48 h [9]: 15000 nM
- fold change (FC) [10]: 11
- CC50 at 48 h [11]: 52000 nM
- Activity [12]: Active
- fold change (FC) [13]: 3
- pEC50 [14]: 9.59
- pEC50 [15]: 8.66
- pEC50 [16]: 9.44
- pEC50 [1]: 7.42
- EC90 [1]: 152 nM
- fold change (FC) [17]: 2.1
- pEC50 [18]: 8.89
- inhibition [19]: Active
- pEC50 [20]: 9.29
- pEC50 [21]: 9.15
- fold change (FC) [22]: 75
- CC50 at 48 h [23]: 4800 nM
- fold change (FC) [2]: 75

Structure (SMILES): Nc1ccn([C@@H]2CS[C@H](CO)O2)c(=O)n1 [LAMIVUDINE]
- pEC50 [24]: 6.10
- pEC50 [25]: 6.10
- pEC50 [14]: 6.10
- pEC50 [26]: 6.10

Structure (SMILES): Cc1nnc(C(=O)NC(C)(C)c2nc(C(=O)NCc3ccc(F)cc3)c(O)c(=O)n2C)o1 [RALTEGRAVIR POTASSIUM]
- pEC50 [27]: 8.19
- pEC50 [28]: 9.59
- pEC50 [29]: 7.49
- pEC50 [30]: 8.19
- pEC50 [14]: 9.59
- pEC50 [1]: 8.25
- EC90 [1]: 23 nM
- pEC50 [31]: 8.89
- pEC50 [32]: 9.59
